Assay results reported in ChEMBL document CHEMBL1201862, “PubChem BioAssay data set” (2004).
Calls of active or inactive are those of the source.

What was measured:
[1] = tested on: Streptococcus sp. 'group A'; assay: Streptococcus pyogenes SK(-)GAS viability under kanamycin – luminescence, BacTiterGlo, confirmation, counter-screen for streptokinase expression inhibitor project, dose response (AID 1900); format: functional, organism-based
Streptokinase A = molecular target: T1, Streptokinase A (Streptococcus pyogenes serotype M1, UniProt P10520); assay: viability-normalized secreted streptokinase activity reduction – plasminogen activation absorbance, OD405, dose response (AID 1914); format: functional, Streptococcus pyogenes M1 GAS;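 further: secreted streptokinase activity via plasminogen activation per viability signal from cell pellet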
T1 sequence (P10520 whole entry): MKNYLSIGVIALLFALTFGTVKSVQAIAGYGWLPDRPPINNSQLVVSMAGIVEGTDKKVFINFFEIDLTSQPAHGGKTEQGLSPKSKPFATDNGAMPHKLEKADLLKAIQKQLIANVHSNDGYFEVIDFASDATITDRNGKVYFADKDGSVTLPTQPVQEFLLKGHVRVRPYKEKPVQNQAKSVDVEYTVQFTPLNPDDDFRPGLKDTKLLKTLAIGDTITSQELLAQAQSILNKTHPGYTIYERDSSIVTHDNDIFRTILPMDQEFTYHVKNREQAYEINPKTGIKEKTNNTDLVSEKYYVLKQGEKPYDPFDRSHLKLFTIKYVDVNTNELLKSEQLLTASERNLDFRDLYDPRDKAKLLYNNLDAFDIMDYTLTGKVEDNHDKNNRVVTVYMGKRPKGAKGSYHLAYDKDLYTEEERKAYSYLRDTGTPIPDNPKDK

Streptococcus = assay: GAS UMAA2166 growth inhibition – luminescence, BacTiterGlo, counter-screen for streptokinase expression inhibitor project, dose response (AID 1915); format: functional, organism-based;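 further: potency for reduction of bacterial viability or growth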
[2] = molecular target: Disintegrin and metalloproteinase domain-containing protein 17 (Homo sapiens, UniProt P78536); assay: inhibition of ADAM17 substrate cleavage – biochemical, quenched FRET substrate, counter-screen for ADAM10 exosite inhibitor project, dose response (AID 743253)
Chain of Disintegrin and metalloproteinase domain-containing protein 17 (P78536 whole entry, the tested form may be a part): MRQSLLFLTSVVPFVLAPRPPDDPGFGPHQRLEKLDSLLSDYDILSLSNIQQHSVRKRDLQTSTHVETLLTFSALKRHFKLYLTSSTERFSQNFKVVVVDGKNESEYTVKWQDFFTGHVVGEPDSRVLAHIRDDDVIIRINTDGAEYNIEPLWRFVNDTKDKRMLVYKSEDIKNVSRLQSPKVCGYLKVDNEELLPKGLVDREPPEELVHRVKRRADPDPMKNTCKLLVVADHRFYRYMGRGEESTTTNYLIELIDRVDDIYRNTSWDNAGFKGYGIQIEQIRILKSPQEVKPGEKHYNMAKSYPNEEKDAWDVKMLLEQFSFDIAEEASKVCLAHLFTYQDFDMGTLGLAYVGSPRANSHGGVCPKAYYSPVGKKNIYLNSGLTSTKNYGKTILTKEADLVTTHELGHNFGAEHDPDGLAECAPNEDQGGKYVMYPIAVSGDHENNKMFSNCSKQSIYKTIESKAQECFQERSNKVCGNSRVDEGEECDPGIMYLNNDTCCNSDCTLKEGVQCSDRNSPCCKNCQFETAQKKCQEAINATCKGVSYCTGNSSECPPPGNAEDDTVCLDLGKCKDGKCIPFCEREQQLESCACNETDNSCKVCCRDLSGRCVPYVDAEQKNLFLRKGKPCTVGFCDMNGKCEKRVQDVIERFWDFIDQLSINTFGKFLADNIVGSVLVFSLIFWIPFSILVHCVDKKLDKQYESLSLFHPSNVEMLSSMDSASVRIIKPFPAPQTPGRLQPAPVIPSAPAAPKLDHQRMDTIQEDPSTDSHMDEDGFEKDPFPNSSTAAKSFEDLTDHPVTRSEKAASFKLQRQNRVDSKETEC

Large T antigen = Large T antigen (Simian virus 40, UniProt P03070); format: functional, Betapolyomavirus macacae;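 further: Confirmatory-stage PubChem screen for compounds that inhibit SV40 T antigen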
Chain of Large T antigen (P03070 whole entry): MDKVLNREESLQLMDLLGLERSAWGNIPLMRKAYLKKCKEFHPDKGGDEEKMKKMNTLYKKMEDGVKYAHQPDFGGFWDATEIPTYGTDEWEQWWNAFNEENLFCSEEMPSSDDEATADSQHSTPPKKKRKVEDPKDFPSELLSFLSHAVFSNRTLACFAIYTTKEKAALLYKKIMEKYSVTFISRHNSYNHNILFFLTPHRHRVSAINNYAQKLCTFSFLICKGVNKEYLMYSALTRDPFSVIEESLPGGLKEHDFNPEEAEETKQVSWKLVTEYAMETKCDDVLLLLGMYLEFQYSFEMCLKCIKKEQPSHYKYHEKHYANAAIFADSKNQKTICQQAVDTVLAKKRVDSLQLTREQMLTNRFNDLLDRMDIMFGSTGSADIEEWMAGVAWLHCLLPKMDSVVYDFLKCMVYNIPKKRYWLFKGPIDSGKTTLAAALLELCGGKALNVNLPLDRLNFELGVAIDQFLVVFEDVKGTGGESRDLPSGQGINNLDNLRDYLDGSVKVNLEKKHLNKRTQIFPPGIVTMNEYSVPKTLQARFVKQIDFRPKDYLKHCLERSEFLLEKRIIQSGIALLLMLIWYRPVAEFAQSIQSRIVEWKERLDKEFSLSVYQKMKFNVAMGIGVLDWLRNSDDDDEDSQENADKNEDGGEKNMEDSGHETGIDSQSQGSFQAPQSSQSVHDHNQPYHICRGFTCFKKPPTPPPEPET

[3] = molecular target: T2, High affinity choline transporter 1 (Homo sapiens, UniProt Q9GZV3); assay: human choline transporter blockers, potency – cell-based, 5-point CRC, membrane potential dye, dose response (AID 504840); format: functional
T2 sequence (Q9GZV3 whole entry): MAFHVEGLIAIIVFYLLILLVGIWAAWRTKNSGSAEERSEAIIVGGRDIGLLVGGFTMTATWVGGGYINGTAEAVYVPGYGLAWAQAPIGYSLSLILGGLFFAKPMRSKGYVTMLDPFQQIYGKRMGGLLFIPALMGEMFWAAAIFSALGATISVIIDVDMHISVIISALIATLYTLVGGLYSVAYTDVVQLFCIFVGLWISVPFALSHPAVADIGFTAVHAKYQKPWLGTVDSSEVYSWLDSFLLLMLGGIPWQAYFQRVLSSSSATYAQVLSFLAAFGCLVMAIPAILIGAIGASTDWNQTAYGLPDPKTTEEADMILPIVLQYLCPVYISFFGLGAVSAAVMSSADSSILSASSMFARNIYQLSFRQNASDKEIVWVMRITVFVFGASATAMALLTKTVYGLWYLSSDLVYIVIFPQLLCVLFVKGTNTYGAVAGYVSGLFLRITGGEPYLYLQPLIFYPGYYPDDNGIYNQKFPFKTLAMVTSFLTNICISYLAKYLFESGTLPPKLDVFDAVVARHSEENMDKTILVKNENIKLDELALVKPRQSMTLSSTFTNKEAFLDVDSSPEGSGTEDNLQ

[4] = molecular target: Endoplasmic reticulum aminopeptidase 1 (Homo sapiens, UniProt Q9NZ08); assay: inhibition of human ERAP1 enzyme activity – biochemical, cherry-pick, set 2, plate reader, dose response (AID 743314)
Chain of Endoplasmic reticulum aminopeptidase 1 (Q9NZ08 whole entry): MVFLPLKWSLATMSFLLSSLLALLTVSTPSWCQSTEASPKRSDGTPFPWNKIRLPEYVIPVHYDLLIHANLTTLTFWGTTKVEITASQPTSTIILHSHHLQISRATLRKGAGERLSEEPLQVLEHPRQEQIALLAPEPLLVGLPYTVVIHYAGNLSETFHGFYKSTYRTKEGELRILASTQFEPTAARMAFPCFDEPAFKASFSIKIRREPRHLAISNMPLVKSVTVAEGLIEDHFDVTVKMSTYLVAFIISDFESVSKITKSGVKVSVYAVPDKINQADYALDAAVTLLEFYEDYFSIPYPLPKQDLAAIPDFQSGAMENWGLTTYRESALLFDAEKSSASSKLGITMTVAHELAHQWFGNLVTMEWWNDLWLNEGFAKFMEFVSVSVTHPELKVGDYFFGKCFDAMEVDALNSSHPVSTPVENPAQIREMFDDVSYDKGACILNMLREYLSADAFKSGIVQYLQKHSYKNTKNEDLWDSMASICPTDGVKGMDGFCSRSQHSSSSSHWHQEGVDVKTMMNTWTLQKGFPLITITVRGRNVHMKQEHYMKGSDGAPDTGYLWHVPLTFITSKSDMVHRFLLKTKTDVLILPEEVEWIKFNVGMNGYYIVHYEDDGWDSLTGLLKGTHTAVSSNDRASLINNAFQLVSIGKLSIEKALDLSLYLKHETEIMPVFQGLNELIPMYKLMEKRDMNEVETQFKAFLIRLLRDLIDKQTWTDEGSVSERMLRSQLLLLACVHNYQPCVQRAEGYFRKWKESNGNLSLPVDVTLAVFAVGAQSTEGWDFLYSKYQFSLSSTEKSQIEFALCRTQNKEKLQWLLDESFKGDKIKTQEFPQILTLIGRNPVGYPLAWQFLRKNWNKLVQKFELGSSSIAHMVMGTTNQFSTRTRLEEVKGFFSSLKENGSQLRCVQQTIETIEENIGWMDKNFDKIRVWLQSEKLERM

HEK293 [5] = assay: inhibition of NOD1-driven NF-kB reporter – cell-based, luminescence, uHTS, primary screen (AID 1578); format: functional; conditions: Homo sapiens
HEK293 [6] = assay: cells; format: functional, cell-based; conditions: Homo sapiens
HEK293 [7] = assay: cells; format: functional, cell-based; conditions: Homo sapiens; remark: listed apart in the source
[8] = molecular target: Nucleotide-binding oligomerization domain-containing protein 2 (Homo sapiens, UniProt Q9HC29); assay: inhibition of NOD2-driven NF-kB reporter – cell-based, luminescence, uHTS, HEK293 (AID 1566); format: functional
Chain of Nucleotide-binding oligomerization domain-containing protein 2 (Q9HC29 whole entry, the tested form may be a part): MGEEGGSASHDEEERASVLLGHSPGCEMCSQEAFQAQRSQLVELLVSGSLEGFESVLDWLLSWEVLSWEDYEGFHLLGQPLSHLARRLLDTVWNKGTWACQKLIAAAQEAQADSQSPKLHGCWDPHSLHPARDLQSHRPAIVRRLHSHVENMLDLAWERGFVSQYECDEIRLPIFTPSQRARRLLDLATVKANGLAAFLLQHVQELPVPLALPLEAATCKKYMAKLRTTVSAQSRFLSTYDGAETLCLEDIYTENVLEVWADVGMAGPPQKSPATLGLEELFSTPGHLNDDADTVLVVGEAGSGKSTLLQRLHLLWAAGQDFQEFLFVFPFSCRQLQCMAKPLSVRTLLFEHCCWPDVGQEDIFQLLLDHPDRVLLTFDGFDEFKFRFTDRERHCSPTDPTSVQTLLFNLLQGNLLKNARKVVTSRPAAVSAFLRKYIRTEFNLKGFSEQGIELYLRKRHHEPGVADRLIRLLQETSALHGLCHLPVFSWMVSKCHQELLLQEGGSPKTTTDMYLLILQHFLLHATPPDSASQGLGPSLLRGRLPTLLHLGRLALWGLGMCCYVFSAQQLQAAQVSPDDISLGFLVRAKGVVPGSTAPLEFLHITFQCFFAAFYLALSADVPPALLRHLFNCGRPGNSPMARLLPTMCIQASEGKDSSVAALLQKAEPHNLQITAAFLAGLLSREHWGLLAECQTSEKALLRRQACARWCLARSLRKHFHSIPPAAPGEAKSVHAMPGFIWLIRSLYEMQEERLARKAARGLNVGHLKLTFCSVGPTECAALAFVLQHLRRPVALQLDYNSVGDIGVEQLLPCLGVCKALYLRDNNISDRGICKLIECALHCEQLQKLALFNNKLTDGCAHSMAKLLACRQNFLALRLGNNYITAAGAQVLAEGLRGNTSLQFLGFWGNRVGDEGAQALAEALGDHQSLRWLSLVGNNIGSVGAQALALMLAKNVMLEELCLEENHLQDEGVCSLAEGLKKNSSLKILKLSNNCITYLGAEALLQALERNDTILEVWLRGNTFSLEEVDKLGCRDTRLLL

HEK293 [9] = assay: NOD2 signaling inhibitors in MDP-stimulated cells, cell-based, uHTS, luminescence (AID 2001); format: functional; conditions: Homo sapiens
HEK293 [10] = assay: cells; format: functional, cell-based; conditions: Homo sapiens; remark: listed apart in the source
[11] = microbe, parasite or virus in culture; format: functional; conditions: Mycobacterium tuberculosis
[12] = molecular target: T3, Sentrin-specific protease 7 (Homo sapiens, UniProt Q9BQF6); format: functional;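 further: Luminescence-based dose-response confirmation of ultra-high-throughput screening hits, measuring inhibition of SENP7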
T3 sequence (Q9BQF6 whole entry): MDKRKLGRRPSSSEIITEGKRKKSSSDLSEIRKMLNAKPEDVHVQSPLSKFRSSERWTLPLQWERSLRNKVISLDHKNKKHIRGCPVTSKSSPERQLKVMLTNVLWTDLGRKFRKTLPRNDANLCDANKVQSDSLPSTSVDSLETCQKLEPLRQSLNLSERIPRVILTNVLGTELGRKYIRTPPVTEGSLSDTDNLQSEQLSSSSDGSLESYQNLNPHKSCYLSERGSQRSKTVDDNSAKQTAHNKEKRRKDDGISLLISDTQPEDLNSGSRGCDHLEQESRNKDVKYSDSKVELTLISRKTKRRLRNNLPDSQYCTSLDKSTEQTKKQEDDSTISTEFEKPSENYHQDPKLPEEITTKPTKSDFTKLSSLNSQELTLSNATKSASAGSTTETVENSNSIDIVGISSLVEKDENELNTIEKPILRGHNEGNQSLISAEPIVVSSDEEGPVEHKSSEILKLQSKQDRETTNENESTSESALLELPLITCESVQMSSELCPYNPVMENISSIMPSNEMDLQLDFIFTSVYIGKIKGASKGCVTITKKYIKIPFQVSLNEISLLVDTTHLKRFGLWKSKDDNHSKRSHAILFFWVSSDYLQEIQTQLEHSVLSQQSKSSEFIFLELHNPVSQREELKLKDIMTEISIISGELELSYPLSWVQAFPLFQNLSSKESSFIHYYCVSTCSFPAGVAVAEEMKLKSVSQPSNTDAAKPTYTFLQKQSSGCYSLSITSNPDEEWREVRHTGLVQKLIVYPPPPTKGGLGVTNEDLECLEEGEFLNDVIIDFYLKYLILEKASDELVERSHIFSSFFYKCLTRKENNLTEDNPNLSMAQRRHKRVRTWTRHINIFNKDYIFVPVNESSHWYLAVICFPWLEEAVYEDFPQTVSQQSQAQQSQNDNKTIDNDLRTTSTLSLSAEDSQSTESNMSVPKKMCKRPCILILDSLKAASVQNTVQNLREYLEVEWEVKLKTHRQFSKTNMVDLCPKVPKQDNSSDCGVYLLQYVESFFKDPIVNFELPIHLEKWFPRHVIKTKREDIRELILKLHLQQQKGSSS

[13] = molecular target: T4, Sentrin-specific protease 6 (Homo sapiens, UniProt Q9GZR1); format: functional;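 further: Luminescence-based dose-response confirmatory assay of SENP6 inhibition, following up an ultra-high-throughput screen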
T4 sequence (Q9GZR1 whole entry): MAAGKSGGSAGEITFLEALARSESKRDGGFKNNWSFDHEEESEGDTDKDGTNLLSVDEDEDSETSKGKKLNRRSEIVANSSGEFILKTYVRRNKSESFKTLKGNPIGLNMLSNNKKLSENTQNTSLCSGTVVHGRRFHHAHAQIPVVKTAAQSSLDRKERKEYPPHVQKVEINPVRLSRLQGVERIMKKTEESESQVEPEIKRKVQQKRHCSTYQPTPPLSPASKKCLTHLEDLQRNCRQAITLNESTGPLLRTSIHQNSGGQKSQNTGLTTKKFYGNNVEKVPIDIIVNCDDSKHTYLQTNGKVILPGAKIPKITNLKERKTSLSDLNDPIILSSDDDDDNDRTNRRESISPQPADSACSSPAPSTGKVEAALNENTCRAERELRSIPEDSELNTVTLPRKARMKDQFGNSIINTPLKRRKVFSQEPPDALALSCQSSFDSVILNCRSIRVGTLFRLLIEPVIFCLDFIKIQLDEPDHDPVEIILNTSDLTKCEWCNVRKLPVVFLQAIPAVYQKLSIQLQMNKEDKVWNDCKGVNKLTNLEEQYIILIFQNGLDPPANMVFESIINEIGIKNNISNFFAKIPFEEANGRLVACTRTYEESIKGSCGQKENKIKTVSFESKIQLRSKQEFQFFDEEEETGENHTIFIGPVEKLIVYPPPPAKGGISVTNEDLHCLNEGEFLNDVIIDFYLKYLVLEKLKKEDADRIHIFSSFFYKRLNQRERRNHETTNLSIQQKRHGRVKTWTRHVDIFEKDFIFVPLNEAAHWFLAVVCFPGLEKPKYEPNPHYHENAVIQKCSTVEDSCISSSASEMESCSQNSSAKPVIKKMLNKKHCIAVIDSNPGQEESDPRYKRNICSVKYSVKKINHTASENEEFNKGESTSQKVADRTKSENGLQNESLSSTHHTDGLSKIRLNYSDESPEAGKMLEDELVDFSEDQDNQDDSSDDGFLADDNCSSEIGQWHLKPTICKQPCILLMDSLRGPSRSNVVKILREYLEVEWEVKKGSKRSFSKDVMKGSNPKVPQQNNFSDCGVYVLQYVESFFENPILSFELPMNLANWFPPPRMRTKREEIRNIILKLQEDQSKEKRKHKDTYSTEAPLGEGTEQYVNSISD

[14] = molecular target: T5, Sentrin-specific protease 8 (Homo sapiens, UniProt Q96LD8); format: functional;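 further: luminescence read-out of SENP8 inhibition, dose-response confirmation following an ultra-high-throughput screen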
T5 sequence (Q96LD8 whole entry): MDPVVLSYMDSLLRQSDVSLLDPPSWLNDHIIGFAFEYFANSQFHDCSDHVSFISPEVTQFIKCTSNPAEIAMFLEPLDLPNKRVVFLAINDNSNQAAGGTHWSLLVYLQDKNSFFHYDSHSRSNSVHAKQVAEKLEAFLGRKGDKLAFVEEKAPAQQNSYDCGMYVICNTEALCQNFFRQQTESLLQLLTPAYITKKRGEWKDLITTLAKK

[15] = viability loss in HepG2 hepatoma cells – cell-based, ATP luminescence, cherry-pick, activator set 2, cytotoxicity control, dose response (AID 1053143); format: functional
[16] = blockers of FN fibrillogenesis by fibroblasts – AH1F cells, Alexa488-FN fluorescence, cherry-picks, dose response (AID 1035475); format: functional, cell-based
[17] = Late stage assay provider results from the probe development effort to identify selective inhibitors of heat shock protein 90 (HSP90): Absorbance-based cell proliferation assay in SKBR3 cells.; format: functional; conditions: SK-BR-3
[18] = Late stage assay provider results from the probe development effort to identify selective inhibitors of heat shock protein 90 (HSP90): Absorbance-based cell proliferation assay in MCF7 cells.; format: functional

Question: For CCCN(CC(=O)Nc1cc(Cl)cc(Cl)c1)CC(=O)Nc1ccc(F)c(F)c1F, which EC50 [1] is on record?
Answer: 1.77 µM (active)

Question: What about the EC50 (Streptokinase A) of the same compound?
Answer: 1.48 µM (active)

Question: And the EC50 (Streptococcus)?
Answer: 10.4 µM (active)

Question: What about the IC50 [2] of the same compound?
Answer: > 69.5 µM (inactive)

Question: For CSC1=NS(=O)(=O)c2c(C)nn(C)c2S1, which IC50 (Large T antigen) is on record?
Answer: 32.8 µM (active)

Question: What about the IC50 [3] of the same compound?
Answer: 10.7 µM (active)

Question: What about the AC50 [4] of the same compound?
Answer: 18.7 µM (active)

Question: Which results are given for CCOc1cccc(/C=C/c2ccc3cccc(O)c3n2)c1O?
Answer: EC50 (HEK293 [5]): > 20 µM (inactive); IC50 (HEK293 [6]): 11.5 µM (active); IC50 (HEK293 [7]): > 20 µM (inactive); EC50 [8]: > 20 µM (inactive); IC50 (HEK293 [9]): 3.71 µM (inactive); IC50 (HEK293 [10]): > 20 µM (inactive); CC50 [11]: 35.7 µM (active); IC50 [12]: 4.32 µM (active); IC50 [13]: 7.66 µM (active); IC50 [14]: > 100 µM (inactive); AC50 [15]: 26 µM (active)

Question: Which AC50 [16] does the source give for C[C@@H]1CN([C@H](C)CO)C(=O)c2cccc(NC(=O)Nc3ccc(C(F)(F)F)cc3)c2O[C@H]1CN(C)C(=O)Nc1cccc2ccccc12 here?
Answer: 57.7 µM (active)

Question: Which IC50 [17] does the source give for O=C(O)CCCCOc1ccc2cc(Br)c(=O)oc2c1 here?
Answer: > 100 µM (inactive)

Question: What about the IC50 [18] of the same compound?
Answer: > 100 µM (inactive)
